From patent publication US20100183504A1, “MULTIMODAL IMAGING PROBES FOR IN VIVO TARGETED AND NON-TARGETED IMAGING AND THERAPEUTICS” (priority 2007, published 2010)

Tests used:
Format in all cases: physicochemical
[1] = T1/T2 relaxation MRI on Bruker Avance 400 MHz (9.4 T) microimaging system; conditions: measured simultaneously with the nanoparticles at 400 MHz; repeated
Procedure: The concentrations of our solutions are given in terms of silanized nanoparticle concentration and not in terms of Gd^3+ present in solution because the latter is attached to the nanoparticles. At 1 μM concentration, the average distance between nanoparticles is over 100 nm. We determined the concentration of the nanoparticle solution by measuring the UV-vis spectrum. […] We used the following numbers: QD exciton peak at approximately 610 nm, fluorescence emission at approximately 630 nm, full width at half-maximum (fwhm) of 38 nm, extinction coefficient used 620 000 M^−1cm^−1 following published reports (Yu, et al. (2003) Chem. Mater. 15: 2854-2860). […] These latter numbers were computed from the concentrations given by the manufacturer and the OD of citrate-stabilized Au colloids measured directly out of the bottle.
(§1) All MRI experiments were performed on a Bruker Avance 400 MHz (9.4 T) spectrometer equipped with a high-resolution Micro5 microimaging system with a 25 mm RF coil. […] We also obtained quantitative evaluation of the longitudinal relaxation times, T1, by plotting M/Mo versus log(τ), that is, the residual magnetization as a function of the recovery time. T1 values were measured by fitting M(τ)/Mo to an single-exponential growth curve: (M(τ)/Mo)=(1−[…]). Transverse relaxation times were determined by a plot of log-(M/Mo) versus τ. […]

[2] = Gd3+ release from DOTA, colorimetric Arsenazo test; conditions: several weeks
Procedure: The synthesis of Gd-DOTA (i.e., one Gd3+ ion chelated by DOTA) was performed according to a procedure adapted from previous reports (Wang et al. (1992) Inorg. Chem. 31: 1095-1099; Prantner et al. (2003) Mol. Imaging 2: […]). We dissolved p-NH2-Bn-DOTA (2-(4-aminobenzyl)-1,4,7,10-tet-raazacyclododecane-1,4,7,10-tetraacetic acid) in water and add an aqueous solution of GdCl3 (Sigma-Alrich), so as to have a 1:0.98 molar mixture of DOTA/Gd3+ and approximately 0.2 M concentration in DOTA. The solution was heated a few minutes to 80° C. to favor coordination of Gd3+ with the tetraazacy-clododecane ring. The pH of the solution droped below 1. We brought the pH to 3.5-4 by adding aliquots of 7 M NaOH and heat the solution back to 80° C. for a few minutes. At this early stage, heating produces acidification of the solution. […] At that stage, the solution was kept at 80° C. for 3 h. Completion of the Gd^3+ chelation was confirmed by a colorimetric assay using Arsenazo dye (Sigma-Alrich). This colorimetric dye reacts to the presence of unbound or free Gd^3+. The dye natural color is purple, but if it binds to Gd^3+ its color turns to blue. […] The stability of the Gd-DOTA has been studied using the colorimetric Arsenazo test.

[3] = T1 and T2 relaxation time measurements on Bruker Minispecs at 20 and 60 MHz; conditions: 20-100 MHz; comparison line
Text: After extensive purification from unbound Gd-DOTA, these samples were chemically analyzed by inductively coupled plasma mass spectrometry (ICP-MS) by measuring the total amount of Gd and Cd or Au ions. By assuming bulk parameters of the CdSe or Au lattice and the size of the nanoparticles (using tabulated values linking the size of the QDs to its optical properties, or the claimed size for Au nanocrystals), we deduced the number of Gd per silanized nanoparticle. The number of Gd^3+ […] SiO2-coated nanoparticle varied from 3 to greater than 300 and depends on the size of the initial nanoparticles and the conditions used during the conjugation of Gd-DOTA to the silanized nanoparticles. Notice that the same samples were used for MRI study and ICP-MS analysis.
T1 and T2 relaxation time measurements were performed on Bruker Minispecs operating at 1H resonance frequencies of 20 and 60 MHz. An inversion recovery pulse sequence was employed for T1 relaxation time measurements using a monoexponential fit to the recovery curve. For each experiment, 4 scans were collected with a recycle delay of 15 s. To obtain the recovery curve, 50 evenly spaced points were collected with the first point acquired at 5 ms. […]
(§2) The T2 times were calculated from a monoexponential fit to a spin echo decay curve using a Carr-Purcell-Meiboom-Gill (CPMG) pulse sequence. […]

[4] = Relaxivities summarised over the field strengths investigated or without stated field; conditions: three field strengths investigated
Procedure: T1 and T2 relaxation time measurements were performed on Bruker Minispecs operating at 1H resonance frequencies of 20 and 60 MHz. An inversion recovery pulse sequence was employed for T1 relaxation time measurements using a monoexponential fit to the recovery curve. For each experiment, 4 scans were collected with a recycle delay of 15 s. To obtain the recovery curve, 50 evenly spaced points were collected with the first point acquired at 5 ms. The last time point was collected at 4000 ms for short T1 samples and 10,000 ms for samples with long T1 so that each sample was allowed to fully recover. The receiver gain for each sample was set so that the signal amplitude was approximately 60%.
as §2, §1

Gd-DOTA
r1 Gd^3+ ion relaxivity of unbound Gd-DOTA [1]: 3.7 ± 0.04 mM⁻¹ s⁻¹ | r2 Gd^3+ ion relaxivity of unbound Gd-DOTA [1]: 3.8 ± 0.2 mM⁻¹ s⁻¹ | Gd^3+ release from the DOTA ring [2]: No Gd^3+ release | r1 Gd^3+ ion relaxivity of unbound Gd-DOTA [3]: 3 to 5 mM⁻¹ s⁻¹ | relaxivities of unbound Gd-DOTA [4]: 3 to 12 mM⁻¹ s⁻¹
